{
  "source": "patent US9879038B2",
  "about": "“Salt of tenofovir disoproxil” (JW Pharmaceutical Corporation, priority 2014, dated 2018)",
  "format_in_all_cases": "physicochemical",
  "key": {"[1]": {"experiment": "Evaluation of stability (stressed conditions) depending on generation of related substances, HPLC (USP)", "details": "for related substance generated: FIG. 1c", "protocol": "In order to evaluate stability (stressed conditions), according to the ICH guidelines, tenofovir disoproxil edisylate of the present invention (Example 1: TDE) and tenofovir disoproxil fumarate (Comparative Example 1: TDF) as a control group were used, and analyzed using high-perfoiinance liquid chromatography (HPLC) as set forth in the U.S. Pharmacopeia (USP). The results are shown in Table 1 below (stressed conditions: 60±2° C.).\nThe tenofovir disoproxil hemi-edisylate of the present invention (Example 1: TDE (hemi salt)), serving as a test group, and tenofovir disoproxil mono-edisylate (Comparative Example 2: TDE (mono salt)), serving as a control group, were evaluated for stability for 3 weeks in the same manner as in (1) above."}, "[2]": {"experiment": "Evaluation of saturation solubility", "set-up": "saturation solubility: unit not given here", "details": "for solubility: thermodynamic from solid", "protocol": "The saturation solubility of the tenofovir disoproxil hemi-edisylate of the present invention (Example 1) and the tenofovir disoproxil fumarate salt (Comparative Example 1) as a control group were evaluated."}, "[3]": {"experiment": "Evaluation of stability depending on changes in pH", "details": "deionized water and pH 1.2, 4.0, 6.8 buffers, 30° C., HPLC, FIGS. 2 and 3", "protocol": "When a drug is orally administered, it is absorbed in vivo through the stomach, duodenum, small intestine, etc. […] In the present invention, stability was measured using deionized water and three different pH buffer solutions (at pH 1.2, 4.0, and 6.8) for release testing. A test method was performed in a manner in which 5 mg of each of the tenofovir disoproxil hemi-edisylate of the present invention and the tenofovir disoproxil fumarate as a control group was accurately weighed, completely dissolved in 1 mL of a mixture of acetonitrile and water (1:19), and then added with 9 mL of each of the above pH buffer solutions. The individual samples thus prepared were placed in a chamber at 30° C. and changes in the amounts thereof over time were quantified using HPLC."}, "[4]": {"details": "stressed conditions 60±2° C., 7 days"}, "[5]": {"details": "stressed conditions 60±2° C., 14 days"}, "[6]": {"details": "stressed conditions 60±2° C., 21 days"}, "[7]": {"details": "stressed conditions 60±2° C., Initial"}},
  "note": "“Also recorded” adds a separate entry of the source.",
  "data": [
    {"compound": "CC(C)OC(=O)OCOP(=O)(COC(C)Cn1cnc2c(N)ncnc21)OCOC(=O)OC(C)C.O=S(=O)(O)CCS(=O)(=O)O", "note": "(centres unmarked) [tenofovir disoproxil mono-edisylate, Tenofovir disoproxil mono-edisylate]", "values": [
      {"measurement": "related substance generated", "setting": "[1]; stressed conditions, 3rd week", "result": 5.62}
    ]},
    {"compound": "9-[(R)-2-[[bis[[(isopropoxycarbonyl)oxy]methoxy]phosphinyl]methoxy]propyl]adenine hemiedisylate [TDE]", "values": [
      {"measurement": "stability under stressed conditions (in words)", "setting": "[1]; stressed conditions 60±2° C., 3 weeks, versus control salt, listed as tenofovir disoproxil hemi-edisylate", "result": "very stable under stressed conditions compared to the disoproxil fumarate; also recorded: very stable under stressed conditions compared to the tenofovir disoproxil mono-edisylate"},
      {"measurement": "Related substances: Tenofovir disoproxil ethyl ester", "setting": "[1]; [4]", "result": 0.02, "unit": "%"},
      {"measurement": "Related substances: Tenofovir isopropyl isoproxil", "setting": "[1]; [4]", "result": 0.04, "unit": "%"},
      {"measurement": "Related substances: Tenofovir isoproxil monoester", "setting": "[1]; [4]", "result": 0.27, "unit": "%"},
      {"measurement": "Related substances: Tenofovir disoproxil ethyl ester", "setting": "[1]; [5]", "result": 0.01, "unit": "%"},
      {"measurement": "Related substances: Tenofovir isopropyl isoproxil", "setting": "[1]; [5]", "result": 0.04, "unit": "%"},
      {"measurement": "Related substances: Tenofovir isoproxil monoester", "setting": "[1]; [5]", "result": 0.30, "unit": "%"},
      {"measurement": "Related substances: Tenofovir disoproxil ethyl ester", "setting": "[1]; [6]", "result": 0.02, "unit": "%"},
      {"measurement": "Related substances: Tenofovir isopropyl isoproxil", "setting": "[1]; [6]", "result": 0.04, "unit": "%"},
      {"measurement": "Related substances: Tenofovir isoproxil monoester", "setting": "[1]; [6]", "result": 0.37, "unit": "%"},
      {"measurement": "Related substances: Tenofovir disoproxil ethyl ester", "setting": "[1]; [7]", "result": 0.01, "unit": "%"},
      {"measurement": "Related substances: Tenofovir isopropyl isoproxil", "setting": "[1]; [7]", "result": 0.04, "unit": "%"},
      {"measurement": "Related substances: Tenofovir isoproxil monoester", "setting": "[1]; [7]", "result": 0.26, "unit": "%"},
      {"measurement": "related substance generated", "setting": "[1]; stressed conditions, 3rd week", "result": 0.37},
      {"measurement": "stability superior to that of tenofovir disoproxil mono-edisylate", "setting": "[1]; stressed conditions, 3rd week, related substance 0.37 vs 5.62", "result": "at least 15 times"},
      {"measurement": "saturation solubility", "setting": "[2]; DW (Deionized Water)", "result": 2200},
      {"measurement": "saturation solubility", "setting": "[2]; pH 1.2", "result": 2680},
      {"measurement": "saturation solubility", "setting": "[2]; pH 4.0", "result": 2280},
      {"measurement": "saturation solubility", "setting": "[2]; pH 6.8", "result": 2400},
      {"measurement": "stability depending on changes in pH", "setting": "[3]", "result": "stability equal to that of a conventional tenofovir disoproxil fumarate product"}
    ]},
    {"compound": "CC(C)OC(=O)OCOP(=O)(CO[C@H](C)Cn1cnc2c(N)ncnc21)OCOC(=O)OC(C)C.O=C(O)/C=C/C(=O)O", "note": "[TDF, 9-[2-(R)-[[bis[[(isopropoxycarbonyl)oxy]methoxy]phosphinoyl]methoxy]propyl]adenine fumaric acid (1:1)]", "values": [
      {"measurement": "Related substances: Adenine", "setting": "[1]; [4]", "result": 0.01, "unit": "%"},
      {"measurement": "Related substances: Tenofovir isoproxil monoester", "setting": "[1]; [4]", "result": 0.79, "unit": "%"},
      {"measurement": "Related substances: Unspecified impurity-1", "setting": "[1]; [4]", "result": 0.01, "unit": "%"},
      {"measurement": "Related substances: Unspecified impurity-2", "setting": "[1]; [4]", "result": 0.09, "unit": "%"},
      {"measurement": "Related substances: Unspecified impurity-3", "setting": "[1]; [4]", "result": 0.03, "unit": "%"},
      {"measurement": "Related substances: Unspecified impurity-5", "setting": "[1]; [4]", "result": 0.21, "unit": "%"},
      {"measurement": "Related substances: Adenine", "setting": "[1]; [5]", "result": 0.01, "unit": "%"},
      {"measurement": "Related substances: Tenofovir isoproxil monoester", "setting": "[1]; [5]", "result": 1.26, "unit": "%"},
      {"measurement": "Related substances: Unspecified impurity-1", "setting": "[1]; [5]", "result": 0.05, "unit": "%"},
      {"measurement": "Related substances: Unspecified impurity-2", "setting": "[1]; [5]", "result": 0.27, "unit": "%"},
      {"measurement": "Related substances: Unspecified impurity-3", "setting": "[1]; [5]", "result": 0.04, "unit": "%"},
      {"measurement": "Related substances: Unspecified impurity-4", "setting": "[1]; [5]", "result": 0.04, "unit": "%"},
      {"measurement": "Related substances: Unspecified impurity-5", "setting": "[1]; [5]", "result": 0.63, "unit": "%"},
      {"measurement": "Related substances: Unspecified impurity-6", "setting": "[1]; [5]", "result": 0.07, "unit": "%"},
      {"measurement": "Related substances: Unspecified impurity-7", "setting": "[1]; [5]", "result": 0.42, "unit": "%"},
      {"measurement": "Related substances: Adenine", "setting": "[1]; [6]", "result": 0.01, "unit": "%"},
      {"measurement": "Related substances: Tenofovir isoproxil monoester", "setting": "[1]; [6]", "result": 1.81, "unit": "%"},
      {"measurement": "Related substances: Unspecified impurity-2", "setting": "[1]; [6]", "result": 0.18, "unit": "%"},
      {"measurement": "Related substances: Unspecified impurity-3", "setting": "[1]; [6]", "result": 0.03, "unit": "%"},
      {"measurement": "Related substances: Unspecified impurity-5", "setting": "[1]; [6]", "result": 0.21, "unit": "%"},
      {"measurement": "Related substances: Adenine", "setting": "[1]; [7]", "result": 0.01, "unit": "%"},
      {"measurement": "Related substances: Tenofovir isoproxil monoester", "setting": "[1]; [7]", "result": 0.42, "unit": "%"},
      {"measurement": "Related substances: Unspecified impurity-2", "setting": "[1]; [7]", "result": 0.03, "unit": "%"},
      {"measurement": "Related substances: Unspecified impurity-3", "setting": "[1]; [7]", "result": 0.02, "unit": "%"},
      {"measurement": "Related substances: Unspecified impurity-5", "setting": "[1]; [7]", "result": 0.05, "unit": "%"},
      {"measurement": "solubility", "setting": "[2]; aqueous buffer, pH 4.0", "result": 13.2, "unit": "mg/mL"},
      {"measurement": "solubility", "setting": "[2]; pH 1.2, simulated gastric fluid", "result": 39.2, "unit": "mg/mL"},
      {"measurement": "solubility", "setting": "[2]; pH 6.8, aqueous buffer", "result": 9.4, "unit": "mg/mL"},
      {"measurement": "solubility", "setting": "[2]; DW (Deionized Water)", "result": 13.5, "unit": "mg/mL"}
    ]}
  ]
}
